The test system of the experiment is Rattus norvegicus. In words: Hypotensive activity in normotensive Wistar rat assessed as systolic blood pressure at 5 mg/kg, iv after 60 mins (Rvb=138 +/- 0.9 mmHg). The class given is functional, Artery.

Experimental findings from ChEMBL document CHEMBL1154048, “Design, synthesis and pharmacological evaluation of new 1-[3-(4-arylpiperazin-1-yl)-2-hydroxy-propyl]-3,3-diphenylpyrrolidin-2-one derivatives with antiarrhythmic, antihypertensive, and alpha-adrenolytic activity” (Eur J Med Chem, 2009) are described below.

With `Cl.Cl.O=C1N(CC(O)CN2CCN(c3ccccc3C(F)(F)F)CC2)CCC1(c1ccccc1)c1ccccc1` (stereo unspecified), the Activity is 111 mmHg.
